US20200138827A1, “SMALL MOLECULE MODULATORS OF HUMAN STING” (Curadev Pharma Limited, priority 2017, published 2020)

target: T1, WT/R232 STING protein (Homo sapiens, UniProt Q86WV6, H232R); experiment: Luciferase reporter assay in HEK293T-hSTING-Luciferase cells, WT/R232; type: cell-based; conditions: 20 hr stimulation, read-out: R232 Activity (EC50 range)
T1 construct: host or cells: HEK293T
In short: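 […], read by luminescence from supernatant after 20 h compound stimulation. Cells: clonally selected HEK293T (5×10^5/well) stably carrying WT/R232 human STING and a luciferase reporter under five tandem ISREs fused to an ISG54 minimal promoter.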

T1 sequence (Q86WV6 whole entry H232R): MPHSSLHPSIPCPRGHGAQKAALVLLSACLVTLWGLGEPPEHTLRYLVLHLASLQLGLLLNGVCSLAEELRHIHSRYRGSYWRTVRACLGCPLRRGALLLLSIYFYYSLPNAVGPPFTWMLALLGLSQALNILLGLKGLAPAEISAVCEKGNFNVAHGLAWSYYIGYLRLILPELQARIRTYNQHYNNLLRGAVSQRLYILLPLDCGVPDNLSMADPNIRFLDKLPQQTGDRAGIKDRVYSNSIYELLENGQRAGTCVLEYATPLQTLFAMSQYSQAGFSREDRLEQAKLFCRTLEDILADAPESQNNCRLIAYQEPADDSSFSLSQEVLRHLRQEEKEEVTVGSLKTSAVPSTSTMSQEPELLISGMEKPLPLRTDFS

EC50 [µM] | Structure (SMILES)
> 10 | O=C(NCc1cccnc1)c1ccc2c(c1)N(Cc1c(F)cccc1Cl)C(=O)CS2 [Example 109, 4-(2-chloro-6-fluorobenzyl)-3-oxo-N-(pyridin-3-ylmethyl)-3,4-dihydro-2H-benzo[b-1,4]thiazine-6-carboxamide]
> 10 | O=C(NC(c1ccccc1)C1CCCCC1)c1ccc2c(c1)N(Cc1ccccc1F)C(=O)CS2 (stereo not shown) [Example 110, N-(cyclohexyl (phenyl)methyl)-4-(2-fluorobenzyl)-3-oxo-3,4-dihydro-2H-benzo[b][1,4] thiazine-6-carboxamide]
> 10 | O=C(NCc1ccco1)c1ccc2c(c1)N(Cc1ccccc1)C(=O)CS2 [Example 111, 4-benzyl-N-(furan-2-ylmethyl)-3-oxo-3,4-dihydro-2H-benzo[b-1,4]thiazine-6-carboxamide]
> 10 | O=C(NCc1c(F)cc(F)cc1F)c1ccc2c(c1)N(C(C(=O)O)c1ccccc1)C(=O)CS2 (stereo not shown) [Example 113, 2-(3-oxo-6-((2,4,6-trifluorobenzyl)carbamoyl)-2H-benzo[b][1,4]thiazin-4(3H)-yl)-2-phenylacetic acid]
< 1 | COc1cc(F)c(CN2C(=O)CSc3ccc(C(=O)NCc4c(F)cc(F)cc4F)cc32)c(F)c1 [Example 114, 4-(2,6-difluoro-4-methoxybenzyl)-3-oxo-N-(2,4,6-trifluorobenzyl)-3,4-dihydro-2H-benzo[b][1,4] thiazine-6-carboxamide]
< 1 | O=C(NCc1c(F)cc(F)cc1F)c1ccc2c(c1)N(Cc1c(F)cc(O)cc1F)C(=O)CS2 [Example 115, 4-(2,6-difluoro-4-hydroxybenzyl)-3-oxo-N-(2,4,6-trifluorobenzyl)-3,4-dihydro-2H-benzo[b][1,4] thiazine-6-carboxamide]
> 10 | COc1ccccc1CNC(=O)c1ccc2c(c1)N(Cc1ccccc1)C(=O)CS2 [Example 116, 4-benzyl-N-(2-methoxybenzyl)-3-oxo-3,4-dihydro-2H-benzo[b-1,4]thiazine-6-carboxamide]
> 10 | O=C(NCc1ccccc1Cl)c1ccc2c(c1)N(Cc1ccccc1)C(=O)CS2 [Example 117, 4-benzyl-N-(2-chlorobenzyl)-3-oxo-3,4-dihydro-2H-benzo[b-1,4]thiazine-6-carboxamide]
1 to 10 | O=C(NCc1ccco1)c1ccc2c(c1)N(Cc1ccc(Cl)cc1)C(=O)CS2 [Example 119, 4-(4-chlorobenzyl)-N-(furan-2-ylmethyl)-3-oxo-3,4-dihydro-2H-benzo[b-1,4]thiazine-6-carboxamide]
> 10 | Cn1cc(CNC(=O)c2ccc3c(c2)N(Cc2ccccc2)C(=O)CS3)cn1 [Example 121, 4-benzyl-N-((1-methyl-1H-pyrazol-4-yl)methyl)-3-oxo-3,4-dihydro-2H-benzo[b][1,4] thiazine-6-carboxamide]
1 to 10 | O=C(NCc1ccc(F)cc1)c1ccc2c(c1)N(Cc1ccccc1Cl)C(=O)CS2 [Example 122, 4-(2-chlorobenzyl)-N-(4-fluorobenzyl)-3-oxo-3,4-dihydro-2H-benzo[b-1,4]thiazine-6-carboxamide]
> 10 | O=C(NCc1ccccc1Cl)c1ccc2c(c1)N(Cc1ccccc1Cl)C(=O)CS2 [Example 123, N,4-bis(2-chlorobenzyl)-3-oxo-3,4-dihydro-2H-benzo[b-1,4]thiazine-6-carboxamide]
> 10 | O=C(NCc1ccccc1Cl)c1ccc2c(c1)N(Cc1cccc(Cl)c1)C(=O)CS2 [Example 124, N-(2-chlorobenzyl)-4-(3-chlorobenzyl)-3-oxo-3,4-dihydro-2H-benzo[b-1,4]thiazine-6-carboxamide]
> 10 | CC(NC(=O)c1ccc2c(c1)N(Cc1ccc(Cl)cc1)C(=O)CS2)c1ccccc1 (stereo not shown) [Example 125, 4-(4-chlorobenzyl)-3-oxo-N-(1-phenylethyl)-3,4-dihydro-2H-benzo[b-1,4]thiazine-6-carboxamide]
1 to 10 | O=C(NCc1ccccc1)c1ccc2c(c1)N(Cc1c(F)cccc1Cl)C(=O)CS2 [Example 126, N-benzyl-4-(2-chloro-6-fluorobenzyl)-3-oxo-3,4-dihydro-2H-benzo[b-1,4]thiazine-6-carboxamide]
> 10 | Cc1ccc(CN2CCC(CNC(=O)c3ccc4c(c3)N(Cc3c(F)cccc3Cl)C(=O)CS4)CC2)cc1 [Example 128, 4-(2-chloro-6-fluorobenzyl)-N-((1-(4-methylbenzyl)piperidin-4-yl)methyl)-3-oxo-3,4-dihydro-2H-benzo[b][1,4]thiazine-6-carboxamide]
> 10 | O=C(NCCc1ccccc1)c1ccc2c(c1)N(Cc1c(F)cccc1Cl)C(=O)CS2 [Example 129, 4-(2-chloro-6-fluorobenzyl)-3-oxo-N-phenethyl-3,4-dihydro-2H-benzo[b-1,4]thiazine-6-carboxamide]

EC50 [µM] | Structure (SMILES)
> 10 | O=C(NCC1CCCO1)c1ccc2c(c1)N(Cc1c(F)cccc1Cl)C(=O)CS2 (stereo not shown) [Example 130, 4-(2-chloro-6-fluorobenzyl)-3-oxo-N-((tetrahydrofuran-2-yl)methyl)-3,4-dihydro-2H-benzo[b-1,4]thiazine-6-carboxamide]
> 10 | CC1(C)Sc2ccc(C(=O)NCc3ccco3)cc2N(Cc2ccccc2)C1=O [Example 132, 4-Benzyl-N-(furan-2-ylmethyl)-2,2-dimethyl-3-oxo-3,4-dihydro-2H-benzo[b-1,4]thiazine-6-carboxamide]
1 to 10 | CC1Sc2ccc(C(=O)NCc3ccco3)cc2N(Cc2ccccc2)C1=O (stereo not shown) [Example 134, 4-benzyl-N-(furan-2-ylmethyl)-2-methyl-3-oxo-3,4-dihydro-2H-benzo[b-1,4]thiazine-6-carboxamide]
> 10 | CN(C)C1Sc2ccc(C(=O)NCc3ccco3)cc2N(Cc2ccccc2F)C1=O (stereo not shown) [Example 135, 2-(dimethylamino)-4-(2-fluorobenzyl)-N-(furan-2-ylmethyl)-3-oxo-3,4-dihydro-2H-benzo[b-1,4]thiazine-6-carboxamide]
> 10 | CCOC1Sc2ccc(C(=O)NCc3ccco3)cc2N(Cc2ccccc2F)C1=O (stereo not shown) [Example 137, 2-ethoxy-4-(2-fluorobenzyl)-N-(furan-2-ylmethyl)-3-oxo-3,4-dihydro-2H-benzo[b-1,4]thiazine-6-carboxamide]
> 10 | CC1(CC(=O)O)Sc2ccc(C(=O)NCc3ccco3)cc2N(Cc2ccccc2F)C1=O (stereo not shown) [Example 139, 2-(4-(2-fluorobenzyl)-6-((furan-2-ylmethyl)carbamoyl)-2-methyl-3-oxo-3,4-dihydro-2H-benzo[b-1,4]thiazin-2-yl)acetic acid]
1 to 10 | Cc1cccc(CNC(=O)c2ccc3c(c2)N(Cc2ccccc2Cl)C(=O)C(C)S3)c1 (stereo not shown) [Example 143, 4-(2-chlorobenzyl)-2-methyl-N-(3-methylbenzyl)-3-oxo-3,4-dihydro-2H-benzo[b-1,4]thiazine-6-carboxamide]
< 1 | CC1Sc2ccc(C(=O)NCc3c(F)cc(F)cc3F)cc2N(Cc2c(F)ccc(O)c2Cl)C1=O (stereo not shown) [Example 155, 4-(2-chloro-6-fluoro-3-hydroxybenzyl)-2-methyl-3-oxo-N-(2,4,6-trifluorobenzyl)-3,4-dihydro-2H-benzo[b][1,4] thiazine-6-carboxamide]
1 to 10 | N#CCC1Sc2ccc(C(=O)NCc3ccc(F)cc3F)cc2N(Cc2cc(F)cc(F)c2)C1=O (stereo not shown) [Example 162, 2-(cyanomethyl)-N-(2,4-difluorobenzyl)-4-(3,5-difluorobenzyl)-3-oxo-3,4-dihydro-2H-benzo[b][1,4] thiazine-6-carboxamide]
1 to 10 | Cc1cnc(CNC(=O)c2ccc3c(c2)N(Cc2cc(F)cc(F)c2)C(=O)C(C)S3)o1 (stereo not shown) [Example 163, 4-(3,5-difluorobenzyl)-2-methyl-N-((5-methyloxazol-2-yl)methyl)-3-oxo-3,4-dihydro-2H-benzo[b][1,4] thiazine-6-carboxamide]
1 to 10 | CC1(O)Sc2ccc(C(=O)NCc3c(F)cc(F)cc3F)cc2N(Cc2c(F)cccc2Cl)C1=O (stereo not shown) [Example 164, 4-(2-chloro-6-fluorobenzyl)-2-hydroxy-2-methyl-3-oxo-N-(2,4,6-trifluorobenzyl)-3,4-dihydro-2H-benzo[b][1,4] thiazine-6-carboxamide]
> 10 | CC1(F)Sc2ccc(C(=O)NCc3c(F)cc(F)cc3F)cc2N(Cc2c(F)cccc2Cl)C1=O (stereo not shown) [Example 165, 4-(2-chloro-6-fluorobenzyl)-2-fluoro-2-methyl-3-oxo-N-(2,4,6-trifluorobenzyl)-3,4-dihydro-2H-benzo[b][1,4] thiazine-6-carboxamide]
> 10 | NCCC1Sc2ccc(C(=O)NCc3ccc(F)cc3F)cc2N(Cc2cc(F)cc(F)c2)C1=O (stereo not shown) [Example 166, 2-(2-aminoethyl)-N-(2,4-difluorobenzyl)-4-(3,5-difluorobenzyl)-3-oxo-3,4-dihydro-2H-benzo[b] [1,4]thiazine-6-carboxamide]
1 to 10 | Cc1noc(CNC(=O)c2ccc3c(c2)N(Cc2cc(F)cc(F)c2)C(=O)C(C)S3)n1 (stereo not shown) [Example 167, 4-(3,5-difluorobenzyl)-2-methyl-N-((3-methyl-1,2,4-oxadiazol-5-yl)methyl)-3-oxo-3,4-dihydro-2H-benzo[b][1,4] thiazine-6-carboxamide]
> 10 | CC1Sc2ccc(C(=O)NCc3cnccn3)cc2N(Cc2cc(F)cc(F)c2)C1=O (stereo not shown) [Example 168, 4-(3,5-difluorobenzyl)-2-methyl-3-oxo-N-(pyrazin-2-ylmethyl)-3,4-dihydro-2H-benzo [b][1,4]thiazine-6-carboxamide]
> 10 | CC1Sc2ccc(C(=O)NCc3cnn(C)c3)cc2N(Cc2cc(F)cc(F)c2)C1=O (stereo not shown) [Example 169, 4-(3,5-difluorobenzyl)-2-methyl-N-((1-methyl-1H-pyrazol-4-yl)methyl)-3-oxo-3,4-dihydro-2H-benzo[b][1,4] thiazine-6-carboxamide]
> 10 | CS(=O)(=O)NCCC1Sc2ccc(C(=O)NCc3c(F)cc(F)cc3F)cc2N(Cc2cc(F)cc(F)c2)C1=O (stereo not shown) [Example 170, 4-(3,5-difluorobenzyl)-2-(2-(methyl-sulfonamido)ethyl)-3-oxo-N-(2,4,6-trifluorobenzyl)-3,4-dihydro-2H-benzo[b] [1,4]thiazine-6-carboxamide]
